This note sets out measurements from patent US7488712B2, “Histone deacetylase inhibitors and methods for producing the same” (Kyushu Institute of Technology, priority 2002, dated 2009).

Data set [1] in a line: Cytotoxicity test (free-LDH ratio), TIG-3. The conditions noted are these: human, TIG-3 human normal lung cells, 48 hours; free-LDH ratio 50%; without DTT; read-out: LD50 (nM) TIG-3. The class given is cell-based. As for the experimental part:
This was then cultured for 18 hours.

In the next data set the target is T1, human HDAC1 (Homo sapiens, UniProt Q13547).
T1 construct: FLAG; made in house; host or cells: 293T cells (transient transfection, anti-FLAG immunoprecipitation, FLAG peptide elution)
Put plainly: In vitro HDAC inhibition activity, [3H]-acetylated histone substrate, HDAC1. Type of data set: biochemical. The procedure:
(§1) To measure HDAC inhibition activity, an HDAC solution was prepared as described below. 1×10^7 of 293T cells were plated on to a 100-mm dish and, after 24 hours, transfected with vectors (1 μg) expressing human HDAC1 and HDAC4 or mouse HDAC6, using LipofectAmine 2000 reagent (Life Technologies, Inc. Gaithersburg, Md.). […] The vectors were introduced for five hours in OPTI-MEM. The medium was then replaced with Dulbecco's modified Eagle's medium (DMEM), and incubated for 19 hours. The cells were washed with PBS, suspended in lysis buffer (50 mM Tris-HCl (pH7.5), 120 mM NaCl, 5 mM EDTA, and 0.5% Nonidet P-40), and sonicated. The supernatant was collected by centrifugation and nonspecific protein was removed using Protein A/G plus agarose beads (Santa Cruz Biotechnologies, Inc.). Anti-FLAG M2 antibodies (Sigma-Aldrich, Inc.) were added to the supernatant of cells expressing HDAC1 or HDAC4. Anti-HA antibodies (clone 3F10, Roche Molecular Biochemicals) were added to the supernatant of cells expressing HDAC6. Reaction in the respective mixtures was carried out at 4° C. for one hour. The resulting reaction mixtures were independently mixed with agarose beads and further reacted at 4° C. for one hour. The agarose beads were washed three times with lysis buffer and then washed once with HD buffer (20 mM Tris-HCl (pH8.0), 150 mM NaCl, 10% glycerol, and a complete protease inhibitor cocktail (Boehringer Mannheim, Germany)). […] The HDAC reaction solution was used for determining HDAC inhibition activity as shown below.
(§2) In vitro HDAC inhibition activity was evaluated as follows: A test compound was dissolved in DMSO and adjusted to 10 mM. This was used as an inhibitor stock solution. […] These reactions were stopped by adding 10 μl HCl. The [^3H] acetic acid excised by the enzyme reaction was extracted with ethyl acetate and subjected to radioactive dose measurement. As a negative control, the same procedure was carried out in which no inhibitor was added to the reaction system. The inhibition activity was expressed as a 50% inhibition concentration (“IC50 (nM)”) of the HDAC activity in the negative control (Tables 1 to 4).

Data set [2] deals with human wild-type p21 promoter. Put plainly: p21 promoter-inducing activity (luciferase) in MFLL-9 cells. The class given is cell-based. The procedure: The HDAC inhibition activity in vivo was measured using p21 promoter-inducing activity as an index, as shown below. The MFLL-9 cells employed for the experiments stably maintained fusion genes of human wild-type p21 promoter and luciferase (Dr. B. Vogelstaein). Using phenol red-free DMEM medium comprising 10% FBS, cultivation was carried out in a steam-saturated incubator at 37° C. with 5% carbon dioxide. The MFLL-9 cells were plated at a density of 85,000 cells/well on a 96-well microtiter plate, each in 99 μl of the above-mentioned medium. These were then cultivated for six hours. One μl of test compound solution was added to each well, which was then cultured for another 18 hours.
The intensity of luminescence caused by the product of the enzyme reaction for intracellular luciferase expression was measured using Luc Lite (Packard BioScience Company). A group in which test compounds were not added was used as a negative control group. The values measured for this group were used as a standard. The activities for each concentration of added test compound were expressed relative to the above-mentioned standard value, 1.

A further data set deals with T2, mouse HDAC6 (Mus musculus, UniProt Q9Z2V5).
T2 construct: HA; made in house; host or cells: 293T cells (transient transfection, anti-HA immunoprecipitation, HA peptide elution)
T2 sequence (Q9Z2V5 1-1149): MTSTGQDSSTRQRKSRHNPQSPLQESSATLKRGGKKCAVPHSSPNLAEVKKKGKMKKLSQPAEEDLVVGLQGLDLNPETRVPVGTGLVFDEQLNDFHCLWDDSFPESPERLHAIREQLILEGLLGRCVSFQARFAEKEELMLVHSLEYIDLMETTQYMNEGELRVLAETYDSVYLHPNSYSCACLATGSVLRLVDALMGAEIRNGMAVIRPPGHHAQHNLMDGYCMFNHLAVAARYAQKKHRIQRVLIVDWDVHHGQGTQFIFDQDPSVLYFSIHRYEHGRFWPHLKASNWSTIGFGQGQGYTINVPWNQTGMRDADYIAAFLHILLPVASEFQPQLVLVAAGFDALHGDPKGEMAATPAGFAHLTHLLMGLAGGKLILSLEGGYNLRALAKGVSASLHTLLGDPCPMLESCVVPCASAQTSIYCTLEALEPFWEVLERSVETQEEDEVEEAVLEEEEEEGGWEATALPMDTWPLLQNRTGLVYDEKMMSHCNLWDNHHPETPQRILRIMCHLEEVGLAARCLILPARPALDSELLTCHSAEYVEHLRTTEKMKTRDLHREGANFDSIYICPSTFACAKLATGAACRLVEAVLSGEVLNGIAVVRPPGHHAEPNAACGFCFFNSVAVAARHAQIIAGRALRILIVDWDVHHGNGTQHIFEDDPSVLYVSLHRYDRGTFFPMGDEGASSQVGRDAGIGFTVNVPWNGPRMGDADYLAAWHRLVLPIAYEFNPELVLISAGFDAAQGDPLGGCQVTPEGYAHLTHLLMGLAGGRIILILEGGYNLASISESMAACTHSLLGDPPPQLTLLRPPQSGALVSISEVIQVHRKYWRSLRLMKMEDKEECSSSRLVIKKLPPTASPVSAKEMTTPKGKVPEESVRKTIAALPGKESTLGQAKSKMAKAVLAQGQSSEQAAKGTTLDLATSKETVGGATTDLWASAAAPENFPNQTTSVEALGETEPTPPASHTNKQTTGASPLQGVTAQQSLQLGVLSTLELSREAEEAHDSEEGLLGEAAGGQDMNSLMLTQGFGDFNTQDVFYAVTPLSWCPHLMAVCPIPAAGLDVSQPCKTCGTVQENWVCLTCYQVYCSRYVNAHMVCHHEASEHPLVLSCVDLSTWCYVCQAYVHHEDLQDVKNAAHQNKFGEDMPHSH
Put plainly: In vitro HDAC inhibition activity, [3H]-acetylated histone substrate, HDAC6. The class given is biochemical. The procedure:
as §1, §2

The target of another data set is T3, human HDAC4 (Homo sapiens, UniProt P56524).
T3 construct: FLAG; made in house; host or cells: 293T cells (transient transfection, anti-FLAG immunoprecipitation, FLAG peptide elution)
Put plainly: In vitro HDAC inhibition activity, [3H]-acetylated histone substrate, HDAC4. Type of data set: biochemical. As for the experimental part: as §1, §2

The test system of data set [3] is human uterine cancer cells (HeLa). Put plainly: in vitro. The conditions noted are these: 48 h. As for the experimental part: (§3) Human normal lung cells (TIG-3) and human uterine cancer cells (HeLa) were used to test SCOP cytotoxicity. These TIG-3 and HeLa cells were cultured in a DMEM medium comprising 10% FBS at 37° C. in the presence of 5% carbon dioxide in a steam-saturated incubator. The TIG-3 and HeLa cells were plated in 100 μl/well of the above-described medium on a 96-well microtiter plate, at a density of 30,000 cells/well and 10,000 cells/well respectively. This was then cultured for 18 hours. Test compound solution diluted with medium was added to each well and culture was continued for another 48 hours.
(§4) 30 μl of supernatant from each well was transferred to another 96-well microtiter plate (A), and the remaining supernatant was discarded. 100 μl of 0.5% Triton-X/PBS was added to each well to lyse the cells, and 30 μl was then transferred to each respective well of another 96-well microtiter plate (B). 30 μl of LDH-Cytotoxic Test (Wako) substrate solution was added to each well of these 96-well microtiter plates A and B, causing a color reaction. Once the color reaction was sufficiently progressed, it was stopped by adding 60 μl of a quenching solution. Color intensity was measured at OD560 nm using a microplate reader (Softmax). [A/(A+B)] was calculated as the free-LDH ratio. […] The higher the activity value for cancer-cell-selective cell damage (LD50 for normal cells/LD50 for cancer cells), the more that cancer-cell-selective apoptosis was induced.

Another data set in a line: in vitro. Conditions: human, Cancer-Cell-Selective Cytotoxicity, LD50 for normal cells/LD50 for cancer cells (TIG-3/HeLa); without DTT. The procedure: as §3, §4
For data set [4] the following is noted: amide bond, 12-membered ring, HATU/DIEA, DMF.
[5] abbreviates: from H-dTyr(Me)-Ile-dPro-Ab6-OH, 9.7 mM.
Where [6] appears, read: Table 1, X = H (coexisting with DTT).
Setting [7] is: Table 1, X = H (coexisting with DTT), 50% of maximum active value for TSA.

A word on the IC50: it is the concentration needed to halve the response being measured. A higher IC50 goes with weaker potency in that assay. One may read the EC50 as the concentration giving half of the maximal effect. Higher therefore signals a less potent agent.

Where two headings read alike, the source gives them in different places. Where a SMILES comes first, the peptide text is derived from it. [ ]: non-standard residue; d: D form. Gly((CH2)5SH) = N[C@@H](CCCCCS)C(=O)O; Pip = O=C(O)[C@@H]1CCCCN1; dPip = O=C(O)[C@H]1CCCCN1

T1 sequence (Q13547 whole entry): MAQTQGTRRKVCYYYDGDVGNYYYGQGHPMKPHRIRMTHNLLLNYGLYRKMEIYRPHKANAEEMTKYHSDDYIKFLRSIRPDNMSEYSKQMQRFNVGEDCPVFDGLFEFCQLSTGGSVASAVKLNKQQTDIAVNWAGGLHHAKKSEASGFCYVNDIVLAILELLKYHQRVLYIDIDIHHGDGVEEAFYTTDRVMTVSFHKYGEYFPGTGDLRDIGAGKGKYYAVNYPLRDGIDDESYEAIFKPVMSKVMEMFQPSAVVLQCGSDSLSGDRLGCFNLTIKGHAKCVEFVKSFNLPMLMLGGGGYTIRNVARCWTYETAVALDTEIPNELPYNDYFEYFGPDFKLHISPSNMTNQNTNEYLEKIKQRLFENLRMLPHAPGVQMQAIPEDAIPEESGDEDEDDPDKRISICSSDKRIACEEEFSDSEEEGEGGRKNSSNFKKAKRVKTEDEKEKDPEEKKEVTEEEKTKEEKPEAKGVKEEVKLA
T3 sequence (O15379 whole entry partner): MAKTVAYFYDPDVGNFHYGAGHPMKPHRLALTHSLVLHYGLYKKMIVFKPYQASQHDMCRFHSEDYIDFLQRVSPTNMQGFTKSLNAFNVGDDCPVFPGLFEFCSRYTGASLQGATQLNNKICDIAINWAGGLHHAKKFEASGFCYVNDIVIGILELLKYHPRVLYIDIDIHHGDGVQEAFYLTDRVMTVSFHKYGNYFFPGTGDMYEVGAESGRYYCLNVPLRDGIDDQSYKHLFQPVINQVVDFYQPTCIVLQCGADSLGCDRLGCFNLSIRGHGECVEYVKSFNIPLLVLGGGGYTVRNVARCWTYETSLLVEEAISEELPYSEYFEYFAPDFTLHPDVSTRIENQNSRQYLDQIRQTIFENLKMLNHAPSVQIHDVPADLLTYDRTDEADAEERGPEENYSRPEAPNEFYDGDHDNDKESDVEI
T3 sequence (P56524 whole entry): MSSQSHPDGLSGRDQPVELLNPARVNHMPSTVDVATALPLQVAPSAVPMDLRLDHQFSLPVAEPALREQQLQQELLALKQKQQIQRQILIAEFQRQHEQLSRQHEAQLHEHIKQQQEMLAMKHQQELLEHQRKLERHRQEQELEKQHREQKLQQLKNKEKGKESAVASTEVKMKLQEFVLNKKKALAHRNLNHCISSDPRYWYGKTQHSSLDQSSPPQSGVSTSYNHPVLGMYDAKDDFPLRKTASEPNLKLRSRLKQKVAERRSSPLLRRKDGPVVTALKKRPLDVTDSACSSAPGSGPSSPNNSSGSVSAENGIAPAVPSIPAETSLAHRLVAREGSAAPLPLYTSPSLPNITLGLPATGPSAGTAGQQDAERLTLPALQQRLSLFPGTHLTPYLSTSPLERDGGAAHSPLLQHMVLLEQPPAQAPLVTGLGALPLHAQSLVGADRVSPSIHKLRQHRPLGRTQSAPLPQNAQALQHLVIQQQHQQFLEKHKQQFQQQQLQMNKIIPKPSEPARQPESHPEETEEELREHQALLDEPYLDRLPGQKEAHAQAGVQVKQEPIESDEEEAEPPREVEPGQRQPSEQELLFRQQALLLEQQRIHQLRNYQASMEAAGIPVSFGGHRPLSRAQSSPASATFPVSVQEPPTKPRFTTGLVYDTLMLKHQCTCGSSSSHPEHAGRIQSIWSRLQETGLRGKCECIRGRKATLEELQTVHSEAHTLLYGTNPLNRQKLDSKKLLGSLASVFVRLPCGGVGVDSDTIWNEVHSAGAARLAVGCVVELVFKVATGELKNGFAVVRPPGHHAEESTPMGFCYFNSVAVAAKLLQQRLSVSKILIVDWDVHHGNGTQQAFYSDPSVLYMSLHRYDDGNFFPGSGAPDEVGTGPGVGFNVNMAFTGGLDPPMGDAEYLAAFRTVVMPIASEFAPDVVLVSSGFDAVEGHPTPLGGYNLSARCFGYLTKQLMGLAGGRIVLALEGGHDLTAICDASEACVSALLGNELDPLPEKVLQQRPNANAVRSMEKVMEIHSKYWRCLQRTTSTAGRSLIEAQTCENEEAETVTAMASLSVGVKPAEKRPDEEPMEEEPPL

On to `CC[C@H](C)[C@@H]1NC(=O)[C@@H](Cc2ccc(OC)cc2)NC(=O)[C@H](CCCCCSSC)NC(=O)[C@H]2CCCN2C1=O` [SCOP 405, cyclo(-L-Am7(SMe)-D-Tyr(Me)-L-Ile-D-Pro-)], for which the CC50 at 48 h in data set [1] was 7900 nM. The half-inhibitory concentration (IC50) on human HDAC1 (Table 3, hybrid, without DTT) is 119 nM; against mouse HDAC6 (Table 3, hybrid, without DTT), 191 nM; against human HDAC4 (Table 3, hybrid, without DTT), 405 nM. In addition, the EC50 in data set [2] (Table 3, hybrid, without DTT) came out at 3260 nM. Further, the “LD50 (nM) HeLa” value in data set [3] stood at 179 nM. Besides, the selectivity ratio at 48 h in “in vitro” worked out at 44.1.

The compound `CC[C@H](C)[C@@H]1NC(=O)[C@@H](Cc2ccc(OC)cc2)NC(=O)[C@H](CCCCOn2nnc3cccnc32)NC(=O)[C@H]2CCCN2C1=O` [cyclo(-L-A(OAt)6-D-Tyr(Me)-L-Ile-D-Pro-)] yielded a ring closure, isolated yield in data set [4] (setting [5]) of 27%.

For the compound `CC[C@H](C)[C@@H]1NC(=O)[C@@H](Cc2ccc(OC)cc2)NC(=O)[C@H](CCCCCBr)NC(=O)[C@H]2CCCCN2C1=O` [cyclo(-L-Ab7-D-Tyr(Me)-L-Ile-D-Pip-)], the ring closure, isolated yield in data set [4] (from H-dTyr(Me)-Ile-dPip-Ab7-OH?, 2.0 mM) came out at 39%.

Compound `CC[C@H](C)[C@@H]1NC(=O)[C@@H](Cc2ccc(OC)cc2)NC(=O)[C@H](CCCCCBr)NC(=O)[C@@H]2CCCN2C1=O` [cyclo(-L-Ab7-D-Tyr(Me)-L-Ile-L-Pro-)] returned a ring closure, isolated yield in data set [4] (from H-dTyr(Me)-Ile-Pro-Ab7-OH, 1.02 mM) of 21%.

Consider `CC[C@H](C)[C@@H]1NC(=O)[C@@H](Cc2ccc(OC)cc2)NC(=O)[C@H](CCCCCS)NC(=O)[C@H]2CCCCN2C1=O` [SCOP 150] (cyclo([Gly((CH2)5SH)][dY](Me)I[dPip])), for which the IC50 against human HDAC1 (setting [6]) stood at 2.1 nM; against mouse HDAC6 (setting [6]), 5560 nM; on human HDAC4 (setting [6]), 4.26 nM. Moreover, the midpoint of the response in data set [2] (setting [7]), the EC50, lay at 504 nM.

In the case of `CC[C@H](C)[C@@H]1NC(=O)[C@@H](Cc2ccc(OC)cc2)NC(=O)[C@H](CCCCCCCS)NC(=O)[C@H]2CCCN2C1=O` [SCOP 154], the IC50 against human HDAC1 (setting [6]) came to 38.1 nM; against mouse HDAC6 (setting [6]), 2470 nM; against human HDAC4 (setting [6]), 99.2 nM. The same compound returned an EC50 in data set [2] (setting [7]) of 31400 nM.

`CC[C@H](C)[C@@H]1NC(=O)[C@@H](Cc2ccc(OC)cc2)NC(=O)[C@H](CCCCCCCBr)NC(=O)[C@H]2CCCN2C1=O` [cyclo(-L-Ab9-D-Tyr(Me)-L-Ile-D-Pro-)]: the ring closure, isolated yield in data set [4] (from H-Ab9-dTyr(Me)-Ile-dPro-OH, 9.4 mM) came to 61%.

Regarding `CC[C@H](C)[C@@H]1NC(=O)[C@@H](Cc2ccc(OC)cc2)NC(=O)[C@H](CCCCCS)NC(=O)[C@@H]2CCCCN2C1=O` [SCOP 149] (cyclo([Gly((CH2)5SH)][dY](Me)I[Pip])), the IC50 on human HDAC1 (setting [6]) was found to be 2.37 nM; at mouse HDAC6 (setting [6]), 44300 nM; against human HDAC4 (setting [6]), 5.22 nM. The same compound gave an EC50 in data set [2] (setting [7]) of 596 nM.

For the compound `CC[C@H](C)[C@@H]1NC(=O)[C@@H](Cc2ccc(OC)cc2)NC(=O)[C@H](CCCCOn2nnc3cccnc32)NC(=O)[C@H]2CCCN2C1=O` [cyclo(-L-Ab6-D-Tyr(Me)-L-Ile-D-Pro-)], the ring closure, isolated yield in data set [4] (setting [5]) was found to be 23%.

`CC[C@H](C)[C@@H]1NC(=O)[C@@H](Cc2ccc(OC)cc2)NC(=O)[C@H](CCCCCCBr)NC(=O)[C@H]2CCCN2C1=O` [cyclo(-L-Ab8-D-Tyr(Me)-L-Ile-D-Pro-)] registered a ring closure, isolated yield in data set [4] (from H-Ab8-dTyr(Me)-Ile-dPro-OH, 10.0 mM) of 55%.

In data set [4] (from H-dTyr(Me)-Ile-Pip-Ab7-OH?, 2.0 mM), `CC[C@H](C)[C@@H]1NC(=O)[C@@H](Cc2ccc(OC)cc2)NC(=O)[C@H](CCCCCBr)NC(=O)[C@@H]2CCCCN2C1=O` [cyclo(-L-Ab7-D-Tyr(Me)-L-Ile-L-Pip-)] came in with a ring closure, isolated yield of 61%.

In turn, `CC[C@H](C)[C@@H]1NC(=O)[C@@H](Cc2ccc(OC)cc2)NC(=O)[C@H](CCCCCBr)NC(=O)[C@H]2CCCN2C1=O` [H-Ab7-dTyr(Me)-Ile-dPro-OH] gave a ring closure, isolated yield in data set [4] (from H-Ab7-dTyr(Me)-Ile-dPro-OH, 10.2 mM) of 64%.
